Data published in US20030157062A1, “Method for exterminating termites” (priority 2000, published 2003).

System: Coptotemes formosanus
Assay: Indoor testing of termiticidal effect of treated soil (Japan Wood Preserving Association standard number 13, 1992)
Assay type: in vivo
Procedure: The following tests (test numbers 1 to 16) were carried out based on testing methods and qualitative standards (I) for termiticidal effects of termiticide for soil treating (Japan Wood Preserving Association standard number 13, 1992). In the tests using entomopathogenic nematodes, operation of diffusive volatilization was not carried out.
The bottom portions of these two glass bottles are connected with a glass tube (3) of 15 mm in diameter and 100 mm in length.
In one of the glass bottles of the testing container, about 60 g of a non-treated soil (5) having an adjusted moisture content of about 25% is placed, and in the other glass bottle, about 3 g of Japanese red pine wood blocks are placed, and in the central 50 mm portion of the glass tube, a treated soil for testing (6) is placed.
In the glass bottle containing a non-treated soil, Coptotemes formosanus taken out from a nest was placed, and the upper portions of the glass bottles were covered with aluminum foil. Cumulative mortality rates after 0, 3, 5, 7, 10 and 14 days, respectively, were examined. […]

[1] = 10 ppm of insect-growth regulator singly in treated soil, 0 days elapsed
[2] = 10 ppm of insect-growth regulator singly in treated soil, 3 days elapsed
[3] = 10 ppm of insect-growth regulator singly in treated soil, 5 days elapsed
[4] = 10 ppm of insect-growth regulator singly in treated soil, 7 days elapsed
[5] = 10 ppm of insect-growth regulator singly in treated soil, 10 days elapsed
[6] = 10 ppm of insect-growth regulator singly in treated soil, 14 days elapsed
[7] = 20 ppm of insect-growth regulator singly in treated soil, 0 days elapsed
[8] = 20 ppm of insect-growth regulator singly in treated soil, 3 days elapsed
[9] = 20 ppm of insect-growth regulator singly in treated soil, 5 days elapsed
[10] = 20 ppm of insect-growth regulator singly in treated soil, 7 days elapsed
[11] = 20 ppm of insect-growth regulator singly in treated soil, 10 days elapsed
[12] = 20 ppm of insect-growth regulator singly in treated soil, 14 days elapsed
[13] = 50 ppm of insect-growth regulator singly in treated soil, 0 days elapsed
[14] = 50 ppm of insect-growth regulator singly in treated soil, 3 days elapsed
[15] = 50 ppm of insect-growth regulator singly in treated soil, 5 days elapsed
[16] = 50 ppm of insect-growth regulator singly in treated soil, 7 days elapsed
[17] = 50 ppm of insect-growth regulator singly in treated soil, 10 days elapsed
[18] = 50 ppm of insect-growth regulator singly in treated soil, 14 days elapsed

SMILES | Cumulative mortality rate (%) after a lapse of days [1] | Cumulative mortality rate (%) after a lapse of days [2] | Cumulative mortality rate (%) after a lapse of days [3] | Cumulative mortality rate (%) after a lapse of days [4] | Cumulative mortality rate (%) after a lapse of days [5] | Cumulative mortality rate (%) after a lapse of days [6] | Cumulative mortality rate (%) after a lapse of days [7] | Cumulative mortality rate (%) after a lapse of days [8] | Cumulative mortality rate (%) after a lapse of days [9] | Cumulative mortality rate (%) after a lapse of days [10] | Cumulative mortality rate (%) after a lapse of days [11] | Cumulative mortality rate (%) after a lapse of days [12] | Cumulative mortality rate (%) after a lapse of days [13] | Cumulative mortality rate (%) after a lapse of days [14] | Cumulative mortality rate (%) after a lapse of days [15] | Cumulative mortality rate (%) after a lapse of days [16] | Cumulative mortality rate (%) after a lapse of days [17] | Cumulative mortality rate (%) after a lapse of days [18]
O=C(NC(=O)c1c(F)cccc1F)Nc1ccc(Cl)cc1 [Diflubenzuron, N-[[(4-chlorophenyl)amino]carbonyl]-2,6-difluorobenzamide] | 0% | 10% | 15% | 20% | 40% | 50% | 0% | 25% | 35% | 40% | 50% | 60% | 0% | 35% | 45% | 50% | 55% | 70%
O=C(NC(=O)c1c(F)cccc1F)Nc1cc(Cl)c(F)c(Cl)c1F [Teflubenzuron, N-[[(3,5-dichloro-2,4-difluorophenyl)amino]carbonyl]-2,6-difluorobenzamide] | 0% | 20% | 25% | 30% | 30% | 55% | 0% | 30% | 45% | 50% | 60% | 70% | 0% | 40% | 60% | 70% | 80% | 90%
O=C(NC(=O)c1c(F)cccc1F)Nc1ccc(OC(F)(F)C(F)OC(F)(F)F)c(Cl)c1 (centres unmarked) [novaluron, N-[[[3-chloro-4-(1,1,2-trifluoro-2-trifluoromethoxyethoxy)phenyl]amino]carbonyl]-2,6-difluorobenzamide] | 0% | 20% | 30% | 35% | 40% | 80% | 0% | 30% | 45% | 100% |  |  | 0% | 40% | 60% | 100% |  | 
